Test results as given in ChEMBL document CHEMBL1201861, “Genomics of Drug Sensitity in Cancer screening data, Wellcome Trust Sanger Institute”.

Key:
Test in all cases: cells
Format in all cases: functional, cell-based, Homo sapiens
[1] = system: NCI-H2347; conditions: Homo sapiens, NCI-H2347;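 further: growth inhibition of the cell line, read out with a cell viability assay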
Description: SANGER: Inhibition of human NCI-H2347 cell growth in a cell viability assay.

[2] = system: DK-MG; conditions: Homo sapiens, DK-MG;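 further: growth inhibition of DK-MG cells, read out with a cell viability assay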
Description: SANGER: Inhibition of human DK-MG cell growth in a cell viability assay.

[3] = system: OAW-28; conditions: Homo sapiens, OAW-28;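 further: growth inhibition of OAW-28 cells, read out with a cell viability assay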
Description: SANGER: Inhibition of human OAW-28 cell growth in a cell viability assay.

[4] = system: U-698-M; conditions: Homo sapiens, U-698-M
Description: SANGER: Inhibition of human U-698-M cell growth in a cell viability assay.

[5] = system: TGBC1TKB; conditions: Homo sapiens, TGBC1TKB;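 further: growth inhibition of TGBC1TKB cells, read out by a cell viability assay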
Description: SANGER: Inhibition of human TGBC1TKB cell growth in a cell viability assay.

[6] = system: BOKU; conditions: Homo sapiens, BOKU;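 further: growth inhibition of the human BOKU cell line, read out by a cell viability assay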
Description: SANGER: Inhibition of human BOKU cell growth in a cell viability assay.

[7] = system: MKN-45; conditions: Homo sapiens, MKN-45;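 further: growth inhibition of human MKN-45 cells, measured with a cell viability assay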
Description: SANGER: Inhibition of human MKN45 cell growth in a cell viability assay.

[8] = system: EFM-19; conditions: Homo sapiens, EFM-19;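 further: growth inhibition of human EFM-19 cells, measured in a cell viability assay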
Description: SANGER: Inhibition of human EFM-19 cell growth in a cell viability assay.

[9] = system: MDA-MB-134-VI; conditions: Homo sapiens, MDA-MB-134-VI
Description: SANGER: Inhibition of human MDA-MB-134-VI cell growth in a cell viability assay.

[10] = system: ESS-1; conditions: Homo sapiens, ESS-1;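 further: growth inhibition of human ESS-1 cells, read out by a cell viability assay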
Description: SANGER: Inhibition of human ESS-1 cell growth in a cell viability assay.

[11] = system: ECC4; conditions: Homo sapiens, ECC4;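 further: growth inhibition of ECC4 cells, read out with a cell viability assay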
Description: SANGER: Inhibition of human ECC4 cell growth in a cell viability assay.

[12] = system: CCRF-CEM; conditions: Homo sapiens, CCRF-CEM;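 further: inhibition of CCRF-CEM cell growth, measured by a cell viability assay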
Description: SANGER: Inhibition of human CCRF-CEM cell growth in a cell viability assay.

[13] = system: Huh-7; conditions: Homo sapiens, Huh-7;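 further: HuH-7 cell growth inhibition, read out with a cell viability assay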
Description: SANGER: Inhibition of human HuH-7 cell growth in a cell viability assay.

[14] = system: MKN-1; conditions: Homo sapiens, MKN-1;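 further: growth inhibition of human MKN1 cells, read out by a cell viability measurement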
Description: SANGER: Inhibition of human MKN1 cell growth in a cell viability assay.

[15] = system: COLO-320-HSR; conditions: Homo sapiens, COLO-320-HSR;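 further: growth inhibition of COLO-320-HSR cells, determined with a cell viability assay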
Description: SANGER: Inhibition of human COLO-320-HSR cell growth in a cell viability assay.

[16] = system: T98G; conditions: Homo sapiens, T98G;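 further: growth inhibition of T98G cells, read out by a cell viability assay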
Description: SANGER: Inhibition of human T98G cell growth in a cell viability assay.

[17] = system: GCIY; conditions: Homo sapiens, GCIY;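 further: growth inhibition of the human GCIY cell line, read out by a cell viability assay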
Description: SANGER: Inhibition of human GCIY cell growth in a cell viability assay.

[18] = system: NCI-H23; conditions: Homo sapiens, NCI-H23;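 further: cell viability assay measuring growth inhibition of NCI-H23 cells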
Description: SANGER: Inhibition of human NCI-H23 cell growth in a cell viability assay.

[19] = system: J82; conditions: Homo sapiens, J82;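 further: growth inhibition of J82 cells, read out with a cell viability assay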
Description: SANGER: Inhibition of human J82 cell growth in a cell viability assay.

[20] = system: LOUCY; conditions: Homo sapiens, LOUCY;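 further: growth inhibition of human LOUCY cells, read out with a cell viability assay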
Description: SANGER: Inhibition of human LOUCY cell growth in a cell viability assay.

[21] = system: LAN-6; conditions: Homo sapiens, LAN-6;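 further: growth inhibition of LAN-6 cells, determined with a cell viability assay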
Description: SANGER: Inhibition of human LAN-6 cell growth in a cell viability assay.

[22] = system: 5637; conditions: Homo sapiens
Description: SANGER: Inhibition of human 5637 cell growth in a cell viability assay.

[23] = system: LB996-RCC; conditions: Homo sapiens, LB996-RCC
Description: SANGER: Inhibition of human LB996-RCC cell growth in a cell viability assay.

[24] = system: LXF-289 cell line; conditions: Homo sapiens, LXF-289
Description: SANGER: Inhibition of human LXF-289 cell growth in a cell viability assay.

[25] = system: PANC-08-13; conditions: Homo sapiens, PANC-08-13;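 further: cell growth inhibition, measured with a cell viability assay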
Description: SANGER: Inhibition of human PANC-08-13 cell growth in a cell viability assay.

[26] = system: MKN-7; conditions: Homo sapiens, MKN-7;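 further: growth inhibition of MKN-7 cells, read out with a cell viability assay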
Description: SANGER: Inhibition of human MKN7 cell growth in a cell viability assay.

[27] = system: SNU-5; conditions: Homo sapiens, SNU-5;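 further: cell viability readout used to measure growth inhibition in human NCI-SNU-5 cells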
Description: SANGER: Inhibition of human NCI-SNU-5 cell growth in a cell viability assay.

[28] = system: NB13; conditions: Homo sapiens, NB13;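 further: cell viability readout measuring growth inhibition of human NB13 cells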
Description: SANGER: Inhibition of human NB13 cell growth in a cell viability assay.

[29] = system: KP-N-YN; conditions: Homo sapiens, KP-N-YN;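 further: growth inhibition of KP-N-YN cells, read out with a cell viability assay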
Description: SANGER: Inhibition of human KP-N-YN cell growth in a cell viability assay.

[30] = system: LK-2; conditions: Homo sapiens, LK-2;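 further: growth inhibition of LK-2 cells, read out with a viability assay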
Description: SANGER: Inhibition of human LK-2 cell growth in a cell viability assay.

[31] = system: NEC8; conditions: Homo sapiens, NEC8;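 further: growth inhibition of human NEC8 cells, read out by a cell viability assay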
Description: SANGER: Inhibition of human NEC8 cell growth in a cell viability assay.

[32] = system: LB647-SCLC; conditions: Homo sapiens, LB647-SCLC;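 further: cell growth inhibition, read out by a viability assay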
Description: SANGER: Inhibition of human LB647-SCLC cell growth in a cell viability assay.

[33] = system: SNU-C2B; conditions: Homo sapiens, SNU-C2B;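 further: cell viability readout used to measure compound-driven suppression of SNU-C2B cell proliferation, IC50 marking half-maximal growth inhibition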
Description: SANGER: Inhibition of human SNU-C2B cell growth in a cell viability assay.

[34] = system: NCI-H1155; conditions: Homo sapiens, NCI-H1155;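 further: cell growth inhibition measured by a viability assay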
Description: SANGER: Inhibition of human NCI-H1155 cell growth in a cell viability assay.

[35] = system: MEL-HO; conditions: Homo sapiens, MEL-HO
Description: SANGER: Inhibition of human MEL-HO cell growth in a cell viability assay.

[36] = system: SW837; conditions: Homo sapiens, SW837;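 further: growth inhibition of SW837 cells, determined with a cell viability assay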
Description: SANGER: Inhibition of human SW837 cell growth in a cell viability assay.

[37] = system: SW1990; conditions: Homo sapiens, SW1990;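 further: cell growth inhibition determined with a viability assay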
Description: SANGER: Inhibition of human SW1990 cell growth in a cell viability assay.

[38] = system: SAOS-2; conditions: Homo sapiens, SAOS-2;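 further: growth inhibition of human Saos-2 cells determined by a cell viability assay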
Description: SANGER: Inhibition of human Saos-2 cell growth in a cell viability assay.

[39] = system: HSC-4; conditions: Homo sapiens, HSC-4;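 further: growth inhibition of human HSC-4 cells, read out with a cell viability assay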
Description: SANGER: Inhibition of human HSC-4 cell growth in a cell viability assay.

[40] = system: TE-15; conditions: Homo sapiens, TE-15;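 further: cell viability readout of growth inhibition in TE-15 cells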
Description: SANGER: Inhibition of human TE-15 cell growth in a cell viability assay.

[41] = system: BB30-HNC; conditions: Homo sapiens, BB30-HNC;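 further: growth inhibition of the cultured cell line, read out by a cell viability assay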
Description: SANGER: Inhibition of human BB30-HNC cell growth in a cell viability assay.

[42] = system: SH-4; conditions: Homo sapiens, SH-4;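 further: growth inhibition of SH-4 cells, read out with a cell viability assay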
Description: SANGER: Inhibition of human SH-4 cell growth in a cell viability assay.

[43] = system: 769-P; conditions: Homo sapiens, 769-P
Description: SANGER: Inhibition of human 769-P cell growth in a cell viability assay.

[44] = system: EFO-21; conditions: Homo sapiens, EFO-21;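 further: growth inhibition of EFO-21 cells measured with a viability assay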
Description: SANGER: Inhibition of human EFO-21 cell growth in a cell viability assay.

[45] = system: LB831-BLC; conditions: Homo sapiens, LB831-BLC;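 further: growth inhibition of LB831-BLC cells, read out with a cell viability assay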
Description: SANGER: Inhibition of human LB831-BLC cell growth in a cell viability assay.

Work on `Cc1cc([N+](=O)[O-])ccc1NS(=O)(=O)c1cc(Cl)ccc1Cl` yielded an IC50 [1] of 5.86 µM, an IC50 [2] of 12.3 µM and an IC50 [3] of 24.7 µM. For the same compound, the IC50 [4] was 1.81 µM, the IC50 [5] was 8.37 µM and the IC50 [6] was 4.36 µM. For the same compound, the IC50 [7] was 2.15 µM, the IC50 [8] was 5.44 µM and the IC50 [9] was > 32 µM. For the same compound, the IC50 [10] was 7.38 µM, the IC50 [11] was > 32 µM and the IC50 [12] was 7.88 µM. The IC50 [13] was 1.57 µM, the IC50 [14] was 4.21 µM and the IC50 [15] was 17.6 µM. The IC50 [16] was 10.6 µM, the IC50 [17] was 2.94 µM and the IC50 [18] was > 32 µM. It also gave an IC50 [19] of 2.62 µM, an IC50 [20] of 20 µM and an IC50 [21] of 20.4 µM. For the same compound, the IC50 [22] was 7.25 µM, the IC50 [23] was 14.5 µM and the IC50 [24] was 5.36 µM. The IC50 [25] was > 32 µM, the IC50 [26] was > 32 µM and the IC50 [27] was > 32 µM. It also gave an IC50 [28] of 7.32 µM, an IC50 [29] of 10.2 µM and an IC50 [30] of 0.928 µM. The IC50 [31] was 21.7 µM, the IC50 [32] was > 32 µM and the IC50 [33] was 4.29 µM. For the same compound, the IC50 [34] was > 32 µM, the IC50 [35] was 6.53 µM and the IC50 [36] was 4 µM. For the same compound, the IC50 [37] was 5.38 µM, the IC50 [38] was 6.94 µM and the IC50 [39] was 12.2 µM. It also gave an IC50 [40] of 2.15 µM, an IC50 [41] of 2.61 µM and an IC50 [42] of 1.38 µM. The IC50 [43] was 6.73 µM, the IC50 [44] was 11.1 µM and the IC50 [45] was 2.1 µM.

`C=C(c1ccc(C(=O)O)cc1)c1cc2c(cc1C)C(C)(C)CCC2(C)C` [BEXAROTENE] was tested, and the IC50 [1] was > 8 µM, the IC50 [2] was 0.0512 µM and the IC50 [3] was > 8 µM. The IC50 [4] was > 8 µM, the IC50 [5] was > 8 µM and the IC50 [6] was > 8 µM. The IC50 [7] was > 8 µM, the IC50 [8] was > 8 µM and the IC50 [9] was > 8 µM. The IC50 [10] was > 8 µM, the IC50 [11] was > 8 µM and the IC50 [12] was > 8 µM. The IC50 [13] was > 8 µM, the IC50 [14] was > 8 µM and the IC50 [15] was > 8 µM. For the same compound, the IC50 [16] was > 8 µM, the IC50 [17] was > 8 µM and the IC50 [18] was > 8 µM. The IC50 [19] was > 8 µM, the IC50 [20] was > 8 µM and the IC50 [21] was > 8 µM. The IC50 [22] was > 8 µM, the IC50 [23] was > 8 µM and the IC50 [24] was > 8 µM. For the same compound, the IC50 [25] was > 8 µM, the IC50 [26] was > 8 µM and the IC50 [27] was > 8 µM. The IC50 [28] was > 8 µM, the IC50 [30] was > 8 µM and the IC50 [31] was > 8 µM. For the same compound, the IC50 [32] was > 8 µM, the IC50 [33] was > 8 µM and the IC50 [34] was > 8 µM. The IC50 [35] was 0.531 µM, the IC50 [36] was > 8 µM and the IC50 [37] was > 8 µM. For the same compound, the IC50 [38] was > 8 µM, the IC50 [39] was > 8 µM and the IC50 [40] was > 8 µM. For the same compound, the IC50 [41] was > 8 µM, the IC50 [42] was 5.31 µM and the IC50 [43] was > 8 µM. For the same compound, the IC50 [44] was > 8 µM and the IC50 [45] was > 8 µM.

For `Nc1ccn([C@@H]2O[C@H](CO)[C@@H](O)C2(F)F)c(=O)n1` [GEMCITABINE], the IC50 [1] was 0.792 µM, the IC50 [2] was > 1.02 µM and the IC50 [3] was 0.0454 µM. For the same compound, the IC50 [4] was 0.345 µM, the IC50 [5] was > 1.02 µM and the IC50 [6] was 0.254 µM. The IC50 [7] was 0.0177 µM, the IC50 [8] was > 1.02 µM and the IC50 [9] was > 1.02 µM. For the same compound, the IC50 [10] was < 0.004 µM, the IC50 [11] was > 1.02 µM and the IC50 [12] was 0.0188 µM. The IC50 [13] was 0.569 µM, the IC50 [14] was 0.0784 µM and the IC50 [15] was 0.224 µM. It also gave an IC50 [16] of 0.539 µM, an IC50 [17] of 0.0927 µM and an IC50 [18] of 0.211 µM. The IC50 [19] was 0.00741 µM, the IC50 [20] was 0.0207 µM and the IC50 [21] was > 1.02 µM. For the same compound, the IC50 [22] was > 1.02 µM, the IC50 [23] was 0.0651 µM and the IC50 [24] was 0.00331 µM. The IC50 [25] was > 1.02 µM, the IC50 [26] was > 1.02 µM and the IC50 [27] was 0.0121 µM. The IC50 [28] was 0.0382 µM, the IC50 [30] was > 1.02 µM and the IC50 [31] was 0.0354 µM. For the same compound, the IC50 [32] was 0.00118 µM, the IC50 [33] was > 1.02 µM and the IC50 [34] was 0.488 µM. For the same compound, the IC50 [35] was 0.00516 µM, the IC50 [36] was 0.0276 µM and the IC50 [37] was 0.113 µM. The IC50 [38] was > 1.02 µM, the IC50 [39] was < 0.004 µM and the IC50 [40] was < 0.004 µM. For the same compound, the IC50 [41] was < 0.004 µM, the IC50 [42] was 0.00902 µM and the IC50 [43] was < 0.004 µM. The IC50 [44] was 0.0537 µM and the IC50 [45] was 0.0419 µM.
